The target of test [1] is GSK3β (Homo sapiens, UniProt P49841). Nature of the test: GSK3β kinase assay (Caliper LabChip, fluoresceinated peptide substrate). The test is classed as biochemical. How it is done:
(§1) The kinase assay was performed in V-bottom 384-well plates. […] The reaction was incubated at room temperature for 20 hours and terminated by adding 45 μl of 35 mM EDTA to each sample. The reaction mixture was analyzed on the Caliper LabChip3000 (Caliper, Hopkinton, Mass.) by electrophoretic separation of the unphosphorylated substrate and phosphorylated product. […] Compounds were dissolved at 10 mM in dimethylsulfoxide (DMSO) and evaluated at eleven concentrations. IC50 values were derived by non-linear regression analysis.

In test [2] the target is GSK3α (Homo sapiens, UniProt P49840). Put plainly: GSK3α kinase assay (Caliper LabChip, fluoresceinated peptide substrate). Format: biochemical. How it is done: as §1
Chain of GSK3α (P49840 whole entry, species assumed): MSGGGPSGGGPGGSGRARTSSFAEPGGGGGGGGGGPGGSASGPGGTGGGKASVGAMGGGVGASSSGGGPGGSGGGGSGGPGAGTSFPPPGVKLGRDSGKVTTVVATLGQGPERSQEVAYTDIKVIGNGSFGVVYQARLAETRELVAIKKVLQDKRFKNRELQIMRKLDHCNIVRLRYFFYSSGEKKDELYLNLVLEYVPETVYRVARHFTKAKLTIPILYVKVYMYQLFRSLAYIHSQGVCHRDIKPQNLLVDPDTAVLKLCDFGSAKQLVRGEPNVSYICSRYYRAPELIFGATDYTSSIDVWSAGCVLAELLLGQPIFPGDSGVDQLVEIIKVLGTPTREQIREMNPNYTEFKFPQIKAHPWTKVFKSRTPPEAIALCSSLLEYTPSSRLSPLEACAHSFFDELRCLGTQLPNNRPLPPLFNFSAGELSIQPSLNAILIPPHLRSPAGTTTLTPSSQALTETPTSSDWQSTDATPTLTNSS
Test [3] relates to pTau. Nature of the test: pTau assay (no method described). Format: cell-based.
[4] abbreviates: first value of the cell, 250 pM enzyme, 20 uM ATP, 20 hours at room temperature, read-out: GSK3β/α (nM): GSK3β IC50.
Where [5] appears, read: second value of the cell, 250 pM enzyme, 20 uM ATP, 20 hours at room temperature, read-out: GSK3β/α (nM): GSK3α IC50.

Read-outs that look alike come from different tables or passages of the source.

Chain of GSK3β (P49841 whole entry, species assumed): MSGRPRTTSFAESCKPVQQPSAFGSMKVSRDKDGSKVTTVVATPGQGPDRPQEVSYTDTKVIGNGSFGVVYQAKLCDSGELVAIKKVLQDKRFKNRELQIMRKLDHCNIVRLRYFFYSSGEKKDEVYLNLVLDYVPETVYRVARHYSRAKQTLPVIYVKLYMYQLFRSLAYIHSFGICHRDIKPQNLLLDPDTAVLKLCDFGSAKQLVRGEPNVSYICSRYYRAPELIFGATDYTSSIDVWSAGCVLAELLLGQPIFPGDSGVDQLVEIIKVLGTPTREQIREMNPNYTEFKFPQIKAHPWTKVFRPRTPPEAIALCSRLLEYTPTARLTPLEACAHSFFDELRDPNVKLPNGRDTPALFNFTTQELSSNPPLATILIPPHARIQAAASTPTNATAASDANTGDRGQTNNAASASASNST

Take `N#Cc1ccc(Nc2cc(C(=O)Nc3cnccc3-c3ccccc3)ccn2)nc1` [Example 10, 2-((5-Cyanopyridin-2-yl)amino)-N-(4-phenylpyridin-3-yl)isonicotinamide]: the IC50 in test [1] (setting [4]) is 0.98 nM; in test [2], 0.58 nM; in test [3] it was 27 nM.
Consider `CCOc1ccncc1NC(=O)c1ccnc(Nc2ccccn2)c1` [Example 11, N-(4-Ethoxypyridin-3-yl)-2-(pyridin-2-ylamino)isonicotinamide], for which the figures for the IC50 in test [1] (setting [4]), in test [2] and in test [3] were 8.9 nM, 2.8 nM and 294 nM, respectively.
In the case of `CCOc1ccncc1NC(=O)c1ccnc(Nc2nccc3ccccc23)c1` [Example 12, N-(4-Ethoxypyridin-3-yl)-2-(isoquinolin-1-ylamino)isonicotinamide], the IC50 in test [1] (setting [4]) was 5.9 nM; in test [2] it was 35 nM; in test [3], 5400 nM.
Turning to `CCOc1ccncc1NC(=O)c1ccnc(Nc2cc(C)ccn2)c1` [Example 13, N-(4-Ethoxypyridin-3-yl)-2-((4-methylpyridin-2-yl)amino)isonicotinamide], the IC50 in test [1] (setting [4]) turned out to be 1.4 nM; in test [2], 2.3 nM; in test [3], 154 nM.
For `CCOc1ccncc1NC(=O)c1ccnc(Nc2ccc(C)cn2)c1` [Example 14, N-(4-Ethoxypyridin-3-yl)-2-((5-methylpyridin-2-yl)amino)isonicotinamide] the same measures were 0.47 nM, 1.5 nM and 125 nM.
Take `CCOc1ccncc1NC(=O)c1ccnc(Nc2ccc(C(F)(F)F)cn2)c1` [Example 15, N-(4-Ethoxypyridin-3-yl)-2-((5-trifluoromethylpyridin-2-yl)amino)isonicotinamide]: the IC50 in test [1] (setting [4]) was determined as 1.3 nM; in test [2], 0.56 nM; in test [3], 42 nM.
The matching figures for `CCOc1ccncc1NC(=O)c1ccnc(Nc2ccc(C#N)cn2)c1` [Example 16, N-(4-Ethoxypyridin-3-yl)-2-((5-cyanopyridin-2-yl)amino)isonicotinamide]: 1.1 nM, 0.62 nM and 12 nM.
For `CC(C)(C)COc1ccncc1NC(=O)c1ccnc(Nc2ccc(C(F)(F)F)cn2)c1` [Example 17, N-(4-(Neopentyloxy)pyridin-3-yl)-2-((5-(trifluoromethyl)pyridin-2-yl)amino)isonicotinamide] the same measures were 1.6 nM, 0.89 nM and 43 nM.
The matching figures for `O=C(Nc1cnccc1OCC(F)(F)F)c1ccnc(Nc2ccc(C(F)(F)F)cn2)c1` [Example 18, N-(4-(Trifluoroethoxy)pyridin-3-yl)-2-((5-(trifluoromethyl)pyridin-2-yl)amino)isonicotinamide]: 0.71 nM, 0.42 nM and 13 nM.
In the case of `CC(C)Oc1ccncc1NC(=O)c1ccnc(Nc2ccc(C(F)(F)F)cn2)c1` [Example 19, N-(4-(Isopropoxy)pyridin-3-yl)-2-((5-(trifluoromethyl)pyridin-2-yl)amino)isonicotinamide], the IC50 in test [1] (setting [4]) came to 1.6 nM; in test [2], 0.55 nM; in test [3], 16 nM.
For `C[C@H]1COCCN1c1ccncc1NC(=O)c1ccnc(Nc2ccc(C(F)(F)F)cn2)c1` [Example 20, (S)—N-(4-(3-Methylmorpholino)pyridin-3-yl)-2-((5-(trifluoromethyl)pyridin-2-yl)amino)isonicotinamide] the same measures were 0.1 nM, 0.09 nM and 0.66 nM.
For `C[C@@H]1COCCN1c1ccncc1NC(=O)c1ccnc(Nc2ccc(C(F)(F)F)cn2)c1` [Example 21, (R)—N-(4-(3-Methylmorpholino)pyridin-3-yl)-2-((5-(trifluoromethyl)pyridin-2-yl)amino)isonicotinamide] the same measures were 0.7 nM, 0.28 nM and 9.1 nM.
For `CC1(C)CN(c2ccncc2NC(=O)c2ccnc(Nc3ccc(C(F)(F)F)cn3)c2)CCO1` [Example 22, N-(4-(2,2-Dimethylmorpholino)pyridin-3-yl)-2-((5-(trifluoromethyl)pyridin-2-yl)amino)isonicotinamide] the same measures were 0.48 nM, 0.31 nM and 18 nM.
Regarding `O=C(Nc1cnccc1N1CCCCC1)c1ccnc(Nc2ccc(C(F)(F)F)cn2)c1` [Example 23, N-(4-(Piperidin-1-yl)pyridin-3-yl)-2-((5-(trifluoromethyl)pyridin-2-yl)amino)isonicotinamide], the IC50 was 0.24 nM in test [1] (setting [4]), 0.15 nM in test [2] and 6.5 nM in test [3].
The matching figures for `O=C(Nc1cnccc1N1CCC(F)(F)CC1)c1ccnc(Nc2ccc(C(F)(F)F)cn2)c1` [Example 24, N-(4-(4,4-Difluoropiperidin-1-yl)pyridin-3-yl)-2-((5-(trifluoromethyl)pyridin-2-yl)amino)isonicotinamide]: 0.69 nM, 0.49 nM and 4.6 nM.
The matching figures for `CC(C)(C)COc1ccncc1NC(=O)c1ccnc(Nc2ccc(C#N)cn2)c1` [Example 25, 2-((5-Cyanopyridin-2-yl)amino)-N-(4-(neopentyloxy)pyridin-3-yl)isonicotinamide]: 4.3 nM, 2 nM and 30 nM.
As to `Cc1ccncc1NC(=O)c1ccnc(Nc2ccc(C#N)cn2)c1` [Example 26, 2-((5-Cyanopyridin-2-yl)amino)-N-(4-methylpyridin-3-yl)isonicotinamide], the results for the IC50 in test [1], in test [2] (setting [5]) and in test [3] were 14 nM, 8.2 nM and 670 nM, respectively.
Regarding `N#Cc1ccc(Nc2cc(C(=O)Nc3cnccc3N3CCCCC3)ccn2)nc1` [Example 27, 2-((5-Cyanopyridin-2-yl)amino)-N-(4-(piperidin-1-yl)pyridin-3-yl)isonicotinamide], the IC50 in test [1] (setting [4]) turned out to be 0.42 nM; in test [2], 0.18 nM; in test [3], 5.2 nM.
The matching figures for `CC1(C)CN(c2ccncc2NC(=O)c2ccnc(Nc3ccc(C#N)cn3)c2)CCO1` [Example 28, 2-((5-Cyanopyridin-2-yl)amino)-N-(4-(2,2-dimethylmorpholino)pyridin-3-yl)isonicotinamide]: 0.55 nM, 0.37 nM and 16 nM.
The matching figures for `N#Cc1ccc(Nc2cc(C(=O)Nc3cnccc3OCC(F)(F)F)ccn2)nc1` [Example 29, 2-((5-Cyanopyridin-2-yl)amino)-N-(4-(2,2,2-trifluoroethoxy)pyridin-3-yl)isonicotinamide]: 0.69 nM, 0.62 nM and 16 nM.
For `CN(C)S(=O)(=O)c1ccc(Nc2cc(C(=O)Nc3cnccc3OCC(F)(F)F)ccn2)nc1` [Example 30, 2-((5-(N,N-Dimethylsulfamoyl)pyridin-2-yl)amino)-N-(4-(2,2,2-trifluoroethoxy)pyridin-3-yl)isonicotinamide] the same measures were 0.5 nM, 0.31 nM and 24 nM.
Regarding `O=C(Nc1cnccc1OCC(F)(F)F)c1ccnc(Nc2ccc(Cl)cn2)c1` [Example 31, 2-((5-Chloropyridin-2-yl)amino)-N-(4-(2,2,2-trifluoroethoxy)pyridin-3-yl)isonicotinamide], the IC50 in test [1] (setting [4]) was 0.74 nM; in test [2], 0.3 nM; in test [3] it was 22 nM.
Turning to `O=C(Nc1cnccc1C1=CCOCC1)c1ccnc(Nc2ccc(C(F)(F)F)cn2)c1` [Example 32, N-(4-(3,6-Dihydro-2H-pyran-4-yl)pyridin-3-yl)-2-((5-(trifluoromethyl)pyridin-2-yl)amino)isonicotinamide], the IC50 in test [1] (setting [4]) is 2.3 nM; in test [2], 0.78 nM; in test [3] it was 71 nM.
The matching figures for `CC1(c2ccncc2NC(=O)c2ccnc(Nc3ccc(C(F)(F)F)cn3)c2)OCCO1` [Example 33, N-(4-(2-Methyl-1,3-dioxolan-2-yl)pyridin-3-yl)-2-((5-(trifluoromethyl)pyridin-2-yl)amino)isonicotinamide]: 0.29 nM, 0.18 nM and 0.55 nM.
The matching figures for `CC(O)c1ccncc1NC(=O)c1ccnc(Nc2ccc(C(F)(F)F)cn2)c1` (stereo not drawn) [Example 34, N-(4-(1-Hydroxyethyl)pyridin-3-yl)-2-((5-(trifluoromethyl)pyridin-2-yl)amino)isonicotinamide]: 3.2 nM, 1.4 nM and 37 nM.
With `O=C(Nc1cnccc1C1CCOCC1)c1ccnc(Nc2ccc(C(F)(F)F)cn2)c1` [Example 35, N-(4-(Tetrahydro-2H-pyran-4-yl)pyridin-3-yl)-2-((5-(trifluoromethyl)pyridin-2-yl)amino)isonicotinamide], the results for the IC50 in test [1], in test [2] (setting [5]) and in test [3] were 16 nM, 8.7 nM and 760 nM, respectively.
With `O=C(Nc1cnccc1C1=CCCCC1)c1ccnc(Nc2ccc(C(F)(F)F)cn2)c1` [Example 36, N-(4-(Cyclohex-1-en-1-yl)pyridin-3-yl)-2-((5-(trifluoromethyl)pyridin-2-yl)amino)isonicotinamide], the IC50 worked out at 2.9 nM in test [1] (setting [4]), 1.4 nM in test [2] and 130 nM in test [3].
In the case of `CC(=O)c1ccncc1NC(=O)c1ccnc(Nc2ccc(C(F)(F)F)cn2)c1` [Example 37, N-(4-Acetylpyridin-3-yl)-2-((5-(trifluoromethyl)pyridin-2-yl)amino)isonicotinamide], the figures for the IC50 in test [1] (setting [4]), in test [2] and in test [3] were 3.3 nM, 1.5 nM and 130 nM, respectively.
